From patent publication US20200288710A1, “SUBSTITUTED SULPHONAMIDES FOR CONTROLLING ANIMAL PESTS” (BAYER CROPSCIENCE AKTIENGESELLSCHAFT, priority 2016, published 2020)

Experiments:
Myzus persicae [1] = test: Myzus persicae spray test (Chinese cabbage leaf discs); type: in vivo; conditions: foliar, 120 h, 500 g/ha, after 5-6 days, read-out: efficacy
Protocol: Myzus persicae—Spray Test Solvent: 78 parts by weight of acetone • • 1.5 parts by weight of dimethylformamide Emulsifier: alkylaryl polyglycol ether To produce a suitable preparation of active compound, 1 part by weight of active compound is dissolved using the specified parts by weight of solvent and made up with water containing an emulsifier concentration of 1000 ppm until the desired concentration is attained. To produce further test concentrations, the formulation is diluted with emulsifier-containing water. Discs of Chinese cabbage leaves (Brassica pekinensis) infested by all stages of the green peach aphid (Myzus persicae) are sprayed with an active compound preparation of the desired concentration. After 5-6 days, the efficacy in % is determined. 100% means that all the aphids have been killed; 0% means that no aphids have been killed.

Myzus persicae [2] = test: Myzus persicae oral test; type: in vivo; conditions: 120 h, 20 ppm, oral uptake, after 5 days, read-out: efficacy
Protocol: Myzus persicae—Oral Test Solvent: 100 parts by weight of acetone To produce a suitable preparation of active compound, 1 part by weight of active compound is dissolved using the specified parts by weight of solvent and made up with water until the desired concentration is attained. 50 μl of the active compound preparation are transferred into microtitre plates and made up to a final volume of 200 μl with 150 μl of IPL41 insect medium (33%+15% sugar). Subsequently, the plates are sealed with parafilm, which a mixed population of green peach aphids (Myzus persicae) within a second microtitre plate is able to puncture and imbibe the solution through it. After 5 days, the efficacy in % is determined. 100% means that all the aphids have been killed; 0% means that no aphids have been killed.

SMILES	pest or weed control at 500 g/ha (Myzus persicae [1])	pest or weed control at 20 ppm (Myzus persicae [2])
COCCS(=O)(=O)NC(=O)c1cn(C)c(-c2c(F)cccc2Cl)n1 [Example 150]	90%	90%
COc1ccc(F)c(S(=O)(=O)NC(=O)c2cn(C)c(-c3c(F)cccc3Cl)n2)c1 [Example 157]	100%	100%
Cn1cc(C(=O)NS(=O)(=O)c2ccccc2Cl)nc1-c1c(F)cccc1F [Example 91]	90%	100%
Cn1cc(C(=O)NS(=O)(=O)c2ccccc2Cl)nc1-c1ccccc1S(C)(=O)=O [Example 483]	90%	100%
CCc1cccc(OS(C)(=O)=O)c1S(=O)(=O)NC(=O)c1cn(C)c(-c2c(F)cccc2F)n1 [Example 342]	100%	100%
Cn1cc(C(=O)NS(=O)(=O)c2ccccc2Cl)nc1-c1ccccc1OC(F)(F)F [Example 459]	90%	100%
CCn1cc(C(=O)NS(=O)(=O)c2ccccc2Cl)nc1-c1c(F)cccc1F [Example 571]	100%	100%
COc1ccc(OC)c(S(=O)(=O)NC(=O)c2cn(C)c(-c3ncccc3Cl)n2)c1 [Example 598]	90%	100%
CCn1cc(C(=O)NS(=O)(=O)c2ccccc2C)nc1-c1ccccc1Cl [Example 22]	100%	100%
CCc1[nH]c(-c2c(F)cccc2F)nc1C(=O)NS(=O)(=O)c1ccccc1Cl [Example 124]	90%	100%
COc1ccccc1S(=O)(=O)NC(=O)c1cn(C)c(-c2c(F)cccc2Cl)n1 [Example 111]	100%	100%
COc1ccc(Br)c(S(=O)(=O)NC(=O)c2cn(C)c(-c3ncccc3F)n2)c1 [Example 607]	90%	100%
Cc1ccc(F)c(S(=O)(=O)NC(=O)c2cn(C)c(-c3c(F)cccc3F)n2)c1 [Example 454]	90%	100%
COc1ccc(Cl)c(S(=O)(=O)NC(=O)c2nc(-c3c(F)cccc3F)n(C)n2)c1 [Example 12]	90%	90%
COc1ccc(F)c(S(=O)(=O)NC(=O)c2cn(C)c(-c3c(F)cccc3F)n2)c1 [Example 170]	90%	100%
Cc1ccc(F)cc1S(=O)(=O)NC(=O)c1cn(C)c(-c2cccnc2Cl)n1 [Example 566]	100%	100%
Cn1cc(C(=O)NS(=O)(=O)c2c(F)cccc2Br)nc1-c1c(F)cccc1F [Example 432]	100%	100%
Cc1ccccc1-c1nc(C(=O)NS(=O)(=O)c2ccccc2Cl)cn1C [Example 97]	100%	100%
CCc1[nH]c(-c2c(F)cccc2F)nc1C(=O)NS(=O)(=O)c1ccccc1C [Example 125]	90%	100%
Cn1cc(C(=O)NS(=O)(=O)c2c(F)cccc2F)nc1-c1ccccc1Cl [Example 53]	100%	100%
COc1ccc(F)cc1S(=O)(=O)NC(=O)c1cn(C)c(-c2c(F)cccc2F)n1 [Example 17]	90%	100%
Cn1cc(C(=O)NS(=O)(=O)c2ccccc2F)nc1-c1c(F)cccc1F [Example 117]	100%	90%
Cc1cccc(C(F)(F)F)c1S(=O)(=O)NC(=O)c1cn(C)c(-c2ncccc2F)n1 [Example 563]	100%	100%
COc1ccccc1S(=O)(=O)NC(=O)c1cn(C)c(-c2c(F)cccc2F)n1 [Example 116]	100%	100%
Cn1cc(C(=O)NS(=O)(=O)c2ccccc2F)nc1-c1ccccc1Cl [Example 57]	100%	100%
COc1ccc(Cl)c(S(=O)(=O)NC(=O)c2cn(C)c(-c3ccccc3F)n2)c1 [Example 95]	90%	100%
Cc1ccccc1S(=O)(=O)NC(=O)c1nc(-c2c(F)cccc2F)c(C)[nH]1 [Example 147]	100%	100%
Cc1ccccc1S(=O)(=O)NC(=O)c1cn(C)c(-c2cccnc2Cl)n1 [Example 491]	100%	100%
